One assay deals with P. gingivalis. The note with it: literature [21]; cited from earlier work.
A further assay deals with P. gingivalis vesicles. Put plainly: Invasion of P. gingivalis outer membrane vesicles into HOKs (confocal microscopy). The note with it: for inhibitory efficiency on internalization of P. gingivalis vesicles (comparison of compounds): vs DMSO control; for reduction of the total number of HOKs with intracellular vesicles: vs HOKs unexposed to compound, P<0.001.
Another assay deals with actin in HOKs. Put plainly: Actin arrangement in HOKs (anti-actin staining, confocal microscopy). The note with it: treated for 0, 10, 30 min or 2 h. The assay is classed as cell-based, human.
Assay [1] relates to P. gingivalis 33277. In words: Invasion of P. gingivalis cells into HOKs (confocal microscopy). The assay is classed as cell-based, Porphyromonas gingivalis. The note with it: for P. gingivalis cell entry into HOKs: vs untreated HOKs. The text has this: Nuclei were stained with DAPI (Invitrogen).
The subject of assay [2] is P. gingivalis 33277. In words: Exit of intracellular P. gingivalis cells from HOKs. The note with it: 30 μM, 20 h, with gentamicin and metronidazole.
The next assay deals with fimA. Put plainly: Gene expression in P. gingivalis (qRT-PCR). The note with it: 30 μM, 16 h. For orientation: Quantitative PCR measures a nucleic acid by following its amplification.
The subject of the next assay is microtubules in HOKs. Put plainly: Microtubule arrangement in HOKs (anti-α-tubulin staining, confocal microscopy). The note with it: 30 μM. It is filed as cell-based, human.
Where [3] appears, read: after removal of compounds from growth media.

Structures are written as SMILES. Entries after “also recorded” stand apart in the source; their conditions may differ.

Procedure for P. gingivalis vesicles: Human oral keratinocytes (HOKs) were purchased from ScienCell Research Laboratories (Carlsbad, CA) and cultured in specific media, according to the manufacturer's instructions. Prior to treatment, HOKs (2×10^4) were seeded and grown overnight in poly-L-lysine-coated 35 mm glass bottom dishes (MatTek Corporation) at 37° C., 5% CO2, then exposed to P. gingivalis 33277 (2×10^6) or its vesicles (100 ng) for 0 or proper experimental times. To examine the role of Alop1 and dynasore in the bacterial invasion, the compounds were added to the medium 10 min prior to infection.
HOKs were fixed with 3.8% formaldehyde in a sodium phosphate buffer at room temperature for 10 min after treatment, permeabilized with 0.1% Triton X-100 for 10 min, and blocked with 5% bovine serum albumin in PBS for 1 h. HOKs were then immunostained with pan-specific antibodies of P. gingivalis 33277, and α Tubulin or Actin mono-antibodies (Santa Cruz Biotechnology, Dallas, Texas), followed by goat anti-rabbit IgG conjugated to Alex Fluor 546 (Invitrogen). Nuclei were stained with DAPI (Invitrogen). Confocal images were acquired using a Nikon A1R confocal microscope.
For infection rate determination, the number of HOKs with intercellular P. gingivalis cells or its vesicles were determined and divided by the total number of HOKs by counting the cells in 30 random areas (5.6 μm×5.6 μm) under the confocal microscope. Moreover, fluorescence intensity was determined in 100 individual cells using imaging software NIS-Elements AR 4.20, which reflects the level of intercellular P. gingivalis and its vesicles in the infected HOKs.

As to `C=C1[C@@H](C)[C@H]2[C@H](Cc3ccccc3)NC(=O)[C@]23[C@H](OC(C)=O)/C=C/[C@@](C)(O)C(=O)[C@@H](C)C/C=C/[C@H]3[C@@H]1O` [cytochalasin D, reference compound], the “P. gingivalis invasion of epithelial cells” value in the assay with P. gingivalis is listed as “inhibited P. gingivalis invasion of epithelial cells”. Also, the “inhibitory efficiency on internalization of P. gingivalis vesicles (comparison of compounds)” value in the assay with P. gingivalis vesicles (30 μM, 2 h) was “significant inhibitory activity was not observed”.

`O=C(N/N=C/c1ccc(O)c(O)c1)c1cc2ccccc2cc1O` [dynasore]: the “actin arrangement in HOKs” value with actin in HOKs is recorded as “alteration of actin arrangement was not detected”. Moreover, in the assay with P. gingivalis 33277 [1] (at concentrations of 1.2, 6, and 30 μM in vitro), the “host cell invasion by P. gingivalis” value was “inhibit host cell invasion”. In addition, the “P. gingivalis cell entry into HOKs” value in the assay with P. gingivalis 33277 [1] is given as “effectively block P. gingivalis cell entry into HOKs”. For the same molecule, in the assay on P. gingivalis 33277 [2], the “exit of intracellular P. gingivalis from HOKs” value was “no significant change in the fluorescence intensity; also recorded: able to block the bacterial exit from HOKs”. Besides, the “expression of fimA” value in the assay with fimA is reported as “specifically inhibited expression of fimA”. Also, the “reduction of the total number of HOKs with intracellular vesicles” value in the assay with P. gingivalis vesicles (6 μM, 2 h) amounted to 40%. For the same molecule, in the assay with P. gingivalis vesicles (30 μM, 100 infected HOKs, vs non-exposed HOKs), the “fluorescence intensity of internalized vesicles in HOKs” value is listed as “significantly lower fluorescence intensity”. Besides, in the assay with P. gingivalis vesicles (30 μM, 2 h), the “inhibitory efficiency on internalization of P. gingivalis vesicles (comparison of compounds)” value is on record as “highest efficiency” and the “reduction of the total number of HOKs with intracellular vesicles” value is “over 95%”. Also, the “inhibitory activity on P. gingivalis vesicle invasion of HOKs, dose dependence” value in the assay with P. gingivalis vesicles (different doses, 2 h) is recorded as “dose-dependent manner”. In the assay on microtubules in HOKs (setting [3]), the “reversibility of the effect on microtubule arrangement” value was “reversible” and the “start of recovery of microtubule arrangement after compound removal” value is 2 h. In addition, the “microtubule arrangement in HOKs” value in the assay on microtubules in HOKs (observed 30 min after treatment) was “microtubules became more condensed and formed a cortical outer shell at the cell membrane”.

As to `COC(=O)Nc1nc2ccc(C(=O)c3cccs3)cc2[nH]1` [nocodazole, reference compound], the “P. gingivalis invasion of epithelial cells” value in the assay on P. gingivalis is recorded as “inhibited P. gingivalis invasion of epithelial cells”. For the same molecule, the “P. gingivalis cell entry into HOKs” value with P. gingivalis 33277 [1] is reported as “effectively block P. gingivalis cell entry into HOKs”.

Values taken from US12053460B2, “Inhibitors of intracellular invasion” (Meharry Medical College, priority 2016, dated 2024).
